Molecules are shown by their SMILES.

c-kit mutant D816V, sequence (P10721 other isoform, or with tags, fused parts or gaps D816V/del 694-753): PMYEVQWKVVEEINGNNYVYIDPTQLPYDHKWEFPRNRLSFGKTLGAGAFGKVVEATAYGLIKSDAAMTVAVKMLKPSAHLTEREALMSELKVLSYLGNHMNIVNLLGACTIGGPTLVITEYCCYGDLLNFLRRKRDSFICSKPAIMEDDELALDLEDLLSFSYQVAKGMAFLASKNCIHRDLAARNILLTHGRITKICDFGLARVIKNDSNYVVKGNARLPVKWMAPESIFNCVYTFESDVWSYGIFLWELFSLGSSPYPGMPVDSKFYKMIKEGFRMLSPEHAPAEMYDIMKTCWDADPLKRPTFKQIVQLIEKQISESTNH

The assay addresses c-kit mutant D816V (Homo sapiens (Human), UniProt P10721, D816V/DEL694-753). In words: c-Kit mutant D816V biochemical assay (AlphaScreen). The following applies: c-kit D816V biochemical inhibitory activity. Summed up:
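His-tagged c-Kit D816V kinase domain (551-934, Δ694-753, E. coli) phosphorylating 30 nM biotin-(E4Y)10 at 10 μM ATP in HEPES pH 7.2 with Mg/Mn, 5% DMSO, 30 min at room temperature. PY20-acceptor/streptavidin-donor AlphaScreen detection after EDTA stop. IC50 from 8-point 1:3 titration.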
The compound `Cc1n[nH]c(C(=O)Nc2cnc3[nH]c(-c4cnc(N5CCN(C)CC5)nc4)cc3c2)c1C` [P-2160, 3,4-dimethyl-N-[2-[2-(4-methylpiperazin-1-yl)pyrimidin-5-yl]-1H-pyrrolo[2,3-b]pyridin-5-yl]-1H-pyrazole-5-carboxamide] registered an IC50 of 0.0001 to 1 µM. Regarding `Cc1n[nH]c(C(=O)Nc2cnc3[nH]nc(-c4cccc(N5CCN(C(=O)OC(C)(C)C)CC5)c4)c3c2)c1C` [P-2162, tert-butyl 4-[3-[5-[(3,4-dimethyl-1H-pyrazole-5-carbonyl)amino]-1H-pyrazolo[3,4-b]pyridin-3-yl]phenyl]piperazine-1-carboxylate], the IC50 is 1 to 10 µM.

As to `Cc1n[nH]c(C(=O)Nc2cnc3[nH]c(-c4ccnc(C(C)C)c4)cc3c2)c1C` [P-2163, N-[2-(2-isopropyl-4-pyridyl)-1H-pyrrolo[2,3-b]pyridin-5-yl]-3,4-dimethyl-1H-pyrazole-5-carboxamide], the IC50 fell in the range of 0.0001 to 1 µM. For `[2H]c1c([2H])c([2H])c(-c2cc3cc(NC(=O)c4[nH]nc(C)c4C)cnc3[nH]2)c([2H])c1[2H]` [P-2164, 3,4-dimethyl-N-[2-(2,3,4,5,6-pentadeuteriophenyl)-1H-pyrrolo[2,3-b]pyridin-5-yl]-1H-pyrazole-5-carboxamide] the value was 0.0001 to 1 µM. For `Cc1n[nH]c(C(=O)Nc2cnc3[nH]c(-c4c(C)nn(C)c4C)cc3c2)c1C` [P-2165, 3,4-dimethyl-N-[2-(1,3,5-trimethylpyrazol-4-yl)-1H-pyrrolo[2,3-b]pyridin-5-yl]-1H-pyrazole-5-carboxamide] the value was 1 to 10 µM; for `Cc1n[nH]c(C(=O)Nc2cnc3[nH]nc(-c4cccc(N5CCNCC5)c4)c3c2)c1C` [P-2166, 3,4-dimethyl-N-[3-(3-piperazin-1-ylphenyl)-1H-pyrazolo[3,4-b]pyridin-5-yl]-1H-pyrazole-5-carboxamide], 0.0001 to 1 µM.

For `Cc1n[nH]c(C(=O)Nc2cnc3[nH]c(-c4c(C)n[nH]c4C)cc3c2)c1C` [P-2167, N-[2-(3,5-dimethyl-1H-pyrazol-4-yl)-1H-pyrrolo[2,3-b]pyridin-5-yl]-3,4-dimethyl-1H-pyrazole-5-carboxamide], the IC50 is 0.0001 to 1 µM. To `Cc1nn(C2COC2)cc1-c1cc2cc(NC(=O)c3[nH]nc(C)c3C)cnc2[nH]1` [P-2168, 3,4-dimethyl-N-[2-[3-methyl-1-(oxetan-3-yl)pyrazol-4-yl]-1H-pyrrolo[2,3-b]pyridin-5-yl]-1H-pyrazole-5-carboxamide] belongs 0.0001 to 1 µM; to `Cc1n[nH]c(C(=O)Nc2cnc3[nH]c(-c4ccc(F)c(-c5nn[nH]n5)c4)cc3c2)c1C` [P-2174, N-[2-[4-fluoro-3-(2H-tetrazol-5-yl)phenyl]-1H-pyrrolo[2,3-b]pyridin-5-yl]-3,4-dimethyl-1H-pyrazole-5-carboxamide], 0.0001 to 1 µM; to `Cc1n[nH]c(C(=O)Nc2cnc3[nH]c(-c4cccnc4C(F)(F)F)cc3c2)c1C` [P-2176, 3,4-dimethyl-N-[2-[2-(trifluoromethyl)-3-pyridyl]-1H-pyrrolo[2,3-b]pyridin-5-yl]-1H-pyrazole-5-carboxamide], 0.0001 to 1 µM. To `CCc1cc(-c2cc3cc(NC(=O)c4[nH]nc(C)c4C)cnc3[nH]2)ccn1` [P-2177, N-[2-(2-ethyl-4-pyridyl)-1H-pyrrolo[2,3-b]pyridin-5-yl]-3,4-dimethyl-1H-pyrazole-5-carboxamide] belongs 0.0001 to 1 µM.

The compound `CCc1ccc(-c2cc3cc(NC(=O)c4[nH]nc(C)c4C)cnc3[nH]2)cn1` [P-2178, N-[2-(6-ethyl-3-pyridyl)-1H-pyrrolo[2,3-b]pyridin-5-yl]-3,4-dimethyl-1H-pyrazole-5-carboxamide] showed a concentration for half-maximal inhibition (IC50) of 0.0001 to 1 µM. Compound `Cc1n[nH]c(C(=O)Nc2cnc3[nH]c(-c4ccnc5c4OCCO5)cc3c2)c1C` [P-2179, N-[2-(2,3-dihydro-[1,4]dioxino[2,3-b]pyridin-8-yl)-1H-pyrrolo[2,3-b]pyridin-5-yl]-3,4-dimethyl-H-pyrazole-5-carboxamide] showed an IC50 of 0.0001 to 1 µM. For `Cc1n[nH]c(C(=O)Nc2cnc3[nH]c(-c4ccccc4C(F)(F)F)cc3c2)c1C` [P-2180, 3,4-dimethyl-N-[2-[2-(trifluoromethyl)phenyl]-1H-pyrrolo[2,3-b]pyridin-5-yl]-1H-pyrazole-5-carboxamide], the IC50 fell in the range of 0.0001 to 1 µM. To `Cc1ccc(-c2cc3cc(NC(=O)c4[nH]nc(C)c4C)cnc3[nH]2)c(C)c1` [P-2181, N-[2-(2,4-dimethylphenyl)-1H-pyrrolo[2,3-b]pyridin-5-yl]-3,4-dimethyl-1H-pyrazole-5-carboxamide] belongs 0.0001 to 1 µM; to `Cc1n[nH]c(C(=O)Nc2cnc3[nH]c(-c4ccccc4OC(F)(F)F)cc3c2)c1C` [P-2182, 3,4-dimethyl-N-[2-[2-(trifluoromethoxy)phenyl]-1H-pyrrolo[2,3-b]pyridin-5-yl]-1H-pyrazole-5-carboxamide], 0.0001 to 1 µM; to `COc1cncc(-c2cc3cc(NC(=O)c4[nH]nc(C)c4C)cnc3[nH]2)c1` [P-2183, N-[2-(5-methoxy-3-pyridyl)-1H-pyrrolo[2,3-b]pyridin-5-yl]-3,4-dimethyl-1H-pyrazole-5-carboxamide], 0.0001 to 1 µM. For `Cc1cncc(-c2cc3cc(NC(=O)c4[nH]nc(C)c4C)cnc3[nH]2)c1` [P-2184, 3,4-dimethyl-N-[2-(5-methyl-3-pyridyl)-1H-pyrrolo[2,3-b]pyridin-5-yl]-1H-pyrazole-5-carboxamide] the value was 0.0001 to 1 µM; for `Cc1n[nH]c(C(=O)Nc2cnc3[nH]c(-c4ccnc(N5CCN(S(C)(=O)=O)CC5)c4)cc3c2)c1C` [P-2186, 3,4-dimethyl-N-[2-[2-(4-methylsulfonylpiperazin-1-yl)-4-pyridyl]-1H-pyrrolo[2,3-b]pyridin-5-yl]-1H-pyrazole-5-carboxamide], 0.0001 to 1 µM; for `Cc1n[nH]c(C(=O)Nc2cnc3[nH]c(-c4ccnc(N5CCN(C(=O)C6CC6)CC5)c4)cc3c2)c1C` [P-2187, N-[2-[2-[4-(cyclopropanecarbonyl)piperazin-1-yl]-4-pyridyl]-1H-pyrrolo[2,3-b]pyridin-5-yl]-3,4-dimethyl-1H-pyrazole-5-carboxamide], 0.0001 to 1 µM.

Consider `Cc1n[nH]c(C(=O)Nc2cnc3[nH]c(-c4ccnc(N5CCN(C(=O)CC#N)CC5)c4)cc3c2)c1C` [P-2189, N-[2-[2-[4-(2-cyanoacetyl)piperazin-1-yl]-4-pyridyl]-1H-pyrrolo[2,3-b]pyridin-5-yl]-3,4-dimethyl-1H-pyrazole-5-carboxamide], for which the IC50 was 0.0001 to 1 µM. Take `Cc1n[nH]c(C(=O)Nc2cnc3[nH]c(-c4ccc(F)cc4OC(F)F)cc3c2)c1C` [P-2268, N-[2-[2-(difluoromethoxy)-4-fluoro-phenyl]-1H-pyrrolo[2,3-b]pyridin-5-yl]-3,4-dimethyl-1H-pyrazole-5-carboxamide]: the IC50 was in the range of 0.0001 to 1 µM.

In turn, `Cc1n[nH]c(C(=O)Nc2cnc3[nH]c(-c4cncc(C#N)c4)cc3c2)c1C` [P-2270, N-[2-(5-cyano-3-pyridyl)-1H-pyrrolo[2,3-b]pyridin-5-yl]-3,4-dimethyl-1H-pyrazole-5-carboxamide] displayed an IC50 of 0.0001 to 1 µM. Consider `Cc1n[nH]c(C(=O)Nc2cnc3[nH]c(C4=CCOCC4)cc3c2)c1C` [P-2271, N-[2-(3,6-dihydro-2H-pyran-4-yl)-1H-pyrrolo[2,3-b]pyridin-5-yl]-3,4-dimethyl-1H-pyrazole-5-carboxamide], for which the IC50 was in the range of 0.0001 to 1 µM. `Cc1n[nH]c(C(=O)Nc2cnc3[nH]c(-c4cnccc4C(N)=O)cc3c2)c1C` [P-2272, 3-[5-[(3,4-dimethyl-1H-pyrazole-5-carbonyl)amino]-1H-pyrrolo[2,3-b]pyridin-2-yl]pyridine-4-carboxamide] came in with an IC50 of 0.0001 to 1 µM. `Cc1n[nH]c(C(=O)Nc2cnc3[nH]c(-c4cccc5c4OCC5)cc3c2)c1C` [P-2273, N-[2-(2,3-dihydrobenzofuran-7-yl)-1H-pyrrolo[2,3-b]pyridin-5-yl]-3,4-dimethyl-H-pyrazole-5-carboxamide] yielded an IC50 of 0.0001 to 1 µM. `Cc1n[nH]c(C(=O)Nc2cnc3[nH]c(-c4cccc(N5CCNCC5)c4)cc3c2)c1C` [P-2274, 3,4-dimethyl-N-[2-(3-piperazin-1-ylphenyl)-1H-pyrrolo[2,3-b]pyridin-5-yl]-1H-pyrazole-5-carboxamide] had an IC50 of 0.0001 to 1 µM. With `Cc1cc(Cl)ccc1-c1cc2cc(NC(=O)c3[nH]nc(C)c3C)cnc2[nH]1` [P-2277, N-[2-(4-chloro-2-methyl-phenyl)-1H-pyrrolo[2,3-b]pyridin-5-yl]-3,4-dimethyl-1H-pyrazole-5-carboxamide], the IC50 was in the range of 0.0001 to 1 µM.

With `Cc1n[nH]c(C(=O)Nc2cnc3[nH]c(-c4ccncc4Cl)cc3c2)c1C` [P-2278, N-[2-(3-chloro-4-pyridyl)-H-pyrrolo[2,3-b]pyridin-5-yl]-3,4-dimethyl-1H-pyrazole-5-carboxamide], the concentration for half-maximal inhibition (IC50) lay in the range of 0.0001 to 1 µM. Compound `Cc1n[nH]c(C(=O)Nc2cnc3[nH]c(-c4ccc(F)nc4F)cc3c2)c1C` [P-2280, N-[2-(2,6-difluoro-3-pyridyl)-1H-pyrrolo[2,3-b]pyridin-5-yl]-3,4-dimethyl-1H-pyrazole-5-carboxamide] displayed an IC50 of 0.0001 to 1 µM. For `Cc1n[nH]c(C(=O)Nc2cnc3[nH]c(-c4cccc5c4OC(F)(F)O5)cc3c2)c1C` [P-2281, N-[2-(2,2-difluoro-1,3-benzodioxol-4-yl)-1H-pyrrolo[2,3-b]pyridin-5-yl]-3,4-dimethyl-1H-pyrazole-5-carboxamide] the value was 0.0001 to 1 µM. As for `Cc1cc(-c2cc3cc(NC(=O)c4[nH]nc(C)c4C)cnc3[nH]2)cnc1C` [P-2282, N-[2-(5,6-dimethyl-3-pyridyl)-1H-pyrrolo[2,3-b]pyridin-5-yl]-3,4-dimethyl-1H-pyrazole-5-carboxamide], the IC50 was in the range of 0.0001 to 1 µM. For `COc1ccc(-c2cc3cc(NC(=O)c4[nH]nc(C)c4C)cnc3[nH]2)c(C)c1C` [P-2284, N-[2-(4-methoxy-2,3-dimethyl-phenyl)-1H-pyrrolo[2,3-b]pyridin-5-yl]-3,4-dimethyl-1H-pyrazole-5-carboxamide] the value was 0.0001 to 1 µM.
